Results: patent publication US12344614B2, “Benzodiazepine derivatives as GABA a GAMMA1 PAM” (Hoffmann-La Roche Inc., priority 2021, dated 2025)
Where two headings read alike, the source gives them in different places.

Columns and labels:
[1] = molecular target: human GABAA α1β2γ1 receptor (Homo sapiens (Human), UniProt P14867+Q8N1C3); test: Radioligand binding assay, competition for [3H]RO7239181, membranes from HEK293F cells
h-GABA-A α2β2γ1 receptor = h-GABA-A α2β2γ1 receptor (Homo sapiens (Human), UniProt P47869+Q8N1C3); test: Two-electrode voltage clamp electrophysiology in Xenopus oocytes expressing GABAA receptors; type: cell-based; conditions: for Efficacy (GABA) %: % modulation of GABA EC20 = 100*(Fold increase−1), compound at 30-fold Ki α2β2γ1; for Fold increase h-GABA-A α2β2γ1 oocyte @ 30-fold Ki: Xenopus oocytes, GABA EC20, test compound at approx. 30-fold its Ki α2β2γ1
Experimental: Xenopus laevis oocytes at maturation stages V-VI were used for the expression of cloned mRNA encoding GABAA receptor subunits. Oocytes ready for RNA micro-injection were bought from Ecocyte, Castrop-Rauxel, Germany and stored in modified Barth's medium (composition in mM: NaCl 88, KCl 1, NaHCO3 2.4, HEPES 10, MgSO4 0.82, CaNO3 0.33, CaCl2 0.33, pH=7.5) at 20° C. until the experiment.
Oocytes were plated in 96-well plates for microinjection using the Roboinject automated instrument (MultiChannelSystems, Reutlingen, Germany). Approximately 50 nL of an aqueous solution containing the RNA transcripts for the subunits of the desired GABAA receptor subtype was injected into each oocyte. […] Oocytes were kept in modified Barth's medium (composition in mM: NaCl 88, KCl 1, NaHCO3 4, HEPES 10, MgSO4 0.82, CaNO3 0.33, CaCl, 0.33, pH=7.5) at 20° C. until the experiment.
Electrophysiological experiments were performed using the Roboocyte instrument (MultiChannelSystems, Reutlingen, Germany) on days 3 to 5 after the micro-injection of mRNA. During the experiment the oocytes were constantly superfused by a solution containing (in mM) NaCl 90, KCl 1, HEPES 5, MgCl2 1, CaCl2 1 (pH 7.4). Oocytes were impaled by two glass microelectrodes (resistance: 0.5-0.8 MΩ) which were filled with a solution containing KCl 1M+K-acetate 1.5 M and voltage-clamped to −80 mV. The recordings were performed at room temperature using the Roboocyte two-electrode voltage clamp system (Multichannelsystem). After an initial equilibration period of 1.5 min GABA was added for 1.5 min at a concentration evoking approximately 20% of a maximal current response (EC2O). After another rest interval of 2.5 min GABA was again added evoking a response of similar amplitude and shape. […] Current traces were recorded at a digitization rate of 10 Hz during and shortly before and after the GABA application.
Each compound and concentration was tested on at least 3 oocytes. Different oocytes were used for different compound concentrations.
For the analysis, the digitized current traces of the first and second GABA response were superimposed and, if necessary, rescaled to equal maximal amplitudes. The ratio between the two responses during the time interval of test compound application was calculated point by point. The extremum of the resulting “ratio trace” was taken as the efficacy (“Fold increase”) of the compound expressed as “% modulation of GABA EC20” (100*(Fold increase−1)).

SMILES | Ki [1] [nM] | Efficacy (GABA) % (h-GABA-A α2β2γ1 receptor) [%] | Fold increase h-GABA-A α2β2γ1 oocyte @ 30-fold Ki (h-GABA-A α2β2γ1 receptor) | Ki ([1]; read-out: Ki h-GABAA α1β2γ1, [3H]RO7239181 20-30 nM, HEK293F membranes, 1 hour at 4° C., mean of two determinations) [nM]
Cc1nc2n(n1)-c1ccc(C(F)(F)F)c(Cl)c1C(c1nc(O)ccc1F)=N[C@H]2C [Example 25, 6-[(4S)-7-chloro-2,4-dimethyl-8-(trifluoromethyl)-4H-[1,2,4]triazolo[1,5-a][1,4]benzodiazepin-6-yl]-5-fluoro-pyridin-2-ol] | 25.3 | 45 | 1.45 | –
Cc1cnc2n1-c1ccc(C(F)(F)F)c(Cl)c1C(c1nc(O)ccc1Cl)=N[C@H]2C [Example 26, 5-chloro-6-[(4S)-7-chloro-1,4-dimethyl-8-(trifluoromethyl)-4H-imidazo[1,2-a][1,4]benzodiazepin-6-yl]pyridin-2-ol] | 20.5 | 79 | 1.79 | –
Cc1nnc2n1-c1ccc(C(F)(F)F)c(Cl)c1C(c1nc(O)ccc1Cl)=N[C@H]2C [Example 22, 5-chloro-6-[(4S)-7-chloro-1,4-dimethyl-8-(trifluoromethyl)-4H-[1,2,4]triazolo[4,3-a][1,4]benzodiazepin-6-yl]pyridin-2-ol] | 42.5 | 84 | 1.84 | –
Cc1nc2n(n1)-c1ccc(C(F)(F)F)c(Cl)c1C(c1nc(O)ccc1Cl)=N[C@H]2C [Example 29, 5-chloro-6-[(4S)-7-chloro-2,4-dimethyl-8-(trifluoromethyl)-4H-[1,2,4]triazolo[1,5-a][1,4]benzodiazepin-6-yl]pyridin-2-ol] | – | 70 | 1.70 | –
CN1C(=O)CN=C(c2cc(O)ccc2F)c2c1ccc(Cl)c2Cl [Example 1, 6,7-dichloro-5-(2-fluoro-5-hydroxy-phenyl)-1-methyl-3H-1,4-benzodiazepin-2-one] | 2.9 | 90 | 1.90 | 2.9
C[C@@H]1N=C(c2nc(O)ccc2F)c2c(ccc(C(F)(F)F)c2Cl)-n2c1nc1c2CCC1 [Example 24, 6-[(10S)-6-chloro-10-methyl-5-(trifluoromethyl)-1,9,12-triazatetracyclo[9.6.0.02,7.013,17]heptadeca-2(7),3,5,8,11,13(17)-hexaen-8-yl]-5-fluoro-pyridin-2-ol] | – | 64 | 1.64 | –
O=c1ccn2c(n1)CN=C(c1cc(O)ccc1F)c1c-2ccc(C(F)(F)F)c1Cl [Example 11, 8-chloro-7-(2-fluoro-5-hydroxy-phenyl)-9-(trifluoromethyl)-5H-pyrimido[1,2-a][1,4]benzodiazepin-3-one] | 5.17 | 68 | 1.68 | –
Cc1nnc2n1-c1ccc(Cl)c(Cl)c1C(c1c(F)ccc(O)c1F)=NC2 [Example 13, 3-(7,8-dichloro-1-methyl-4H-[1,2,4]triazolo[4,3-a][1,4]benzodiazepin-6-yl)-2,4-difluoro-phenol] | – | 72 | 1.72 | –
C[C@@H]1N=C(c2nc(O)ccc2F)c2c(ccc(C(F)(F)F)c2Cl)-n2cc(C(=O)N3CCC3)nc21 [Example 30, azetidin-1-yl-[(4S)-7-chloro-6-(3-fluoro-6-hydroxy-2-pyridyl)-4-methyl-8-(trifluoromethyl)-4H-imidazo[1,2-a][1,4]benzodiazepin-2-yl]methanone] | – | 120 | 2.20 | –
C[C@@H]1N=C(c2cc(O)ccc2F)c2c(ccc(Cl)c2Cl)-n2ccc(=O)nc21 [Example 5, (5S)-8,9-dichloro-7-(2-fluoro-5-hydroxy-phenyl)-5-methyl-5H-pyrimido[1,2-a][1,4]benzodiazepin-3-one] | 3.3 | 46 | 1.46 | –
CN1C(=O)CN=C(c2c(F)ccc(O)c2F)c2c1ccc(Cl)c2Cl [Example 12, 6,7-dichloro-5-(2,6-difluoro-3-hydroxy-phenyl)-1-methyl-3H-1,4-benzodiazepin-2-one] | – | 99 | 1.99 | –
CN1C(=O)CN=C(c2cc(O)ccc2F)c2c1ccc(C(F)(F)F)c2Cl [Example 8, 6-chloro-5-(2-fluoro-5-hydroxy-phenyl)-1-methyl-7-(trifluoromethyl)-3H-1,4-benzodiazepin-2-one] | 5.43 | 75 | 1.75 | –
Cc1nnc2n1-c1ccc(C(F)(F)F)c(Cl)c1C(c1cc(O)ccc1F)=NC2 [Example 9, 3-[7-chloro-1-methyl-8-(trifluoromethyl)-4H-[1,2,4]triazolo[4,3-a][1,4]benzodiazepin-6-yl]-4-fluoro-phenol] | 8.45 | 69 | 1.69 | –
O=c1ccn2c(n1)CN=C(c1c(F)ccc(O)c1F)c1c-2ccc(Cl)c1Cl [Example 14, 8,9-dichloro-7-(2,6-difluoro-3-hydroxy-phenyl)-5H-pyrimido[1,2-a][1,4]benzodiazepin-3-one] | – | 68 | 1.68 | –
Cc1ccc2c(c1Cl)C(c1cc(O)ccc1F)=NCC(=O)N2C [Example 2, 6-chloro-5-(2-fluoro-5-hydroxy-phenyl)-1,7-dimethyl-3H-1,4-benzodiazepin-2-one] | 3.49 | 70 | 1.70 | –
COC1CN(C(=O)c2nc3n(n2)-c2ccc(Cl)c(Cl)c2C(c2cc(O)ccc2F)=NC3)C1 [Example 7, [7,8-dichloro-6-(2-fluoro-5-hydroxy-phenyl)-4H-[1,2,4]triazolo[1,5-a][1,4]benzodiazepin-2-yl]-(3-methoxyazetidin-1-yl)methanone] | – | 65 | 1.65 | –
Cc1cn2c(n1)[C@H](C)N=C(c1nc(O)ccc1F)c1c-2ccc(C(F)(F)F)c1Cl [Example 28, 6-[(4S)-7-chloro-2,4-dimethyl-8-(trifluoromethyl)-4H-imidazo[1,2-a][1,4]benzodiazepin-6-yl]-5-fluoro-pyridin-2-ol] | 19.9 | 68 | 1.68 | –
Cc1nnc2n1-c1ccc(C(F)(F)F)c(Cl)c1C(c1cc(O)ccc1F)=N[C@H]2C [Example 17, 4-fluoro-3-[(4S)-7-chloro-1,4-dimethyl-8-(trifluoromethyl)-4H-[1,2,4]triazolo[4,3-a][1,4]benzodiazepin-6-yl]phenol] | – | 77 | 1.77 | –
Oc1ccc(F)c(C2=NCc3nncn3-c3ccc(C(F)(F)F)c(Cl)c32)c1 [Example 10, 3-[7-chloro-8-(trifluoromethyl)-4H-[1,2,4]triazolo[4,3-a][1,4]benzodiazepin-6-yl]-4-fluoro-phenol] | – | 73 | 1.73 | –
O=c1ccn2c(n1)CN=C(c1cc(O)ccc1F)c1c-2ccc(Cl)c1Cl [Example 6, 8,9-dichloro-7-(2-fluoro-5-hydroxy-phenyl)-5H-pyrimido[1,2-a][1,4]benzodiazepin-3-one] | – | 92 | 1.92 | –
Cc1cnc2n1-c1ccc(C(F)(F)F)c(Cl)c1C(c1nc(O)ccc1F)=N[C@H]2C [Example 23, 6-[(4S)-7-chloro-1,4-dimethyl-8-(trifluoromethyl)-4H-imidazo[1,2-a][1,4]benzodiazepin-6-yl]-5-fluoro-pyridin-2-ol] | – | 68 | 1.68 | –
COC1CN(C(=O)c2ncn3c2CN=C(c2cc(O)ccc2F)c2c-3ccc(C(F)(F)F)c2Cl)C1 [Example 15, [7-chloro-6-(2-fluoro-5-hydroxy-phenyl)-8-(trifluoromethyl)-4H-imidazo[1,5-a][1,4]benzodiazepin-3-yl]-(3-methoxyazetidin-1-yl)methanone] | – | 80 | 1.80 | –
C[C@@H]1N=C(c2c(F)ccc(O)c2F)c2c(ccc(Cl)c2Cl)-n2ccc(=O)nc21 [Example 18, (5S)-8,9-dichloro-7-(2,6-difluoro-3-hydroxy-phenyl)-5-methyl-5H-pyrimido[1,2-a][1,4]benzodiazepin-3-one] | – | 57 | 1.57 | –
